Patent US10695322B2 (priority 2016, dated 2020)
Where two headings read alike, the source gives them in different places.

Legend:
[1] = target: LdtMab1, wild-type (MAB_3165c, orthologue of LdtMt1) (Mycobacteroides abscessus, UniProt B1MDC1); test: biochemical; assay type: binding, Mycobacterium abscessus; settings: Figure 6; ITC, wt, protein 150 μM, ligand 2 mM, pH 8.0, 24° C.
[2] = target: T1, LdtMt2, wild-type (L,D-transpeptidase of M. tuberculosis; fragment without N-terminal transmembrane domain, N-terminal His6, TEV-cleavable) (Mycobacterium tuberculosis, UniProt I6Y9J2); test: biochemical; assay type: binding
T1 construct: Fragments excluding the putative transmembrane domain were cloned, expressed and purified; His6 (TEV-cleavable) (N); made in house; host or cells: E. coli BL21(DE3)

LdtMab2 [3] = test: UPLC-MS analysis of protein-drug adducts, LdtMab2; assay type: binding, M. abscessus; settings: for reaction and covalent adduct formation: evolved carbapenem alone
LdtCl = test: UPLC-MS analysis of protein-drug adducts, LdtCl; assay type: binding, E. cloacae; settings: for reaction and covalent adduct formation: evolved carbapenem alone
Method: Ultra-performance liquid chromatography-high resolution mass spectrometry (UPLC-MS) with a Waters Acquity H-Class system utilizing a Waters Acquity BEH-300 UPLC column packed with a C4 stationary phase (2.1×50 mm, 1.7 μm) in conjunction with HRMS analysis by a Waters Xero-G2 quadropole-TOF electrospray mass spectrometer was used to detect and analyze protein-drug adducts. Each enzyme (2 μM) in 25 mM Tris buffer, pH 8, was incubated in the absence or presence of drugs (50 μM) at room temperature for 5 hours. Trifluoroacetic acid (0.1% final) was used to quench the reactions, samples were filtered through a 0.22 um filter and analyzed using UPLC-MS as follows: Mobile phase: 0-1 min 90% water+10% ACN+0.1% formic acid, 1-7.5 min gradient up to 20% water+80% ACN+0.1% formic acid, 7.5-8.4 min 20% water+80% ACN+0.1% formic acid, 8.4-8.5 min gradient up to 90% water+10% ACN+0.1% formic acid, 8.5-10 min 90% water+10% ACN+0.1% formic acid. Flow rate=0.3 mL min^−1. T=60° C.

LdtPa = test: UPLC-MS analysis of protein-drug adducts, LdtPa; assay type: binding, P. aeruginosa
LdtKp = test: UPLC-MS analysis of protein-drug adducts, LdtKp; assay type: binding, K. pneumoniae
LdtMab1 [4] = target: T2, LdtMab1 (Mycobacteroides abscessus, UniProt B1MDC1); test: UPLC-MS analysis of protein-drug adducts, LdtMab1; assay type: binding, M. abscessus
LdtMab2 [5] = target: LdtMab2 (Mycobacteroides abscessus, UniProt B1MMQ4); test: Isothermal titration calorimetry, binding to LdtMab2; parameters: species or system M. abscessus; settings: ITC, 24° C., tris pH 8.0
LdtMt2 [6] = target: T3, LdtMt2 (Mycobacterium tuberculosis, UniProt I6Y9J2); assay type: binding, M. tuberculosis; settings: for Kd: 24° C., tris pH 8.0
LdtMt2 [7] = target: T3, LdtMt2; test: biochemical; parameters: species or system M. tuberculosis; settings: for kinact/KI: read-out: kinact/Kapp ratio
[8] = test system: M. tuberculosis, M. abscessus, A. baumannii, K. pneumoniae, E. cloacae, P. aeruginosa, E. faecalis and S. aureus; test: Minimum inhibitory concentration (MIC90), broth dilution, panel of pathogens; assay type: cell-based; settings: panel of tested pathogens
LdtMt1 [9] = target: T4, LdtMt1 (Mycobacterium tuberculosis, UniProt O53638); test: biochemical; assay type: binding, M. tuberculosis
human DHP-1 = target: T5, human DHP-1 (Homo sapiens, UniProt P16444); settings: cited from earlier work
T5 sequence (P16444 17-385): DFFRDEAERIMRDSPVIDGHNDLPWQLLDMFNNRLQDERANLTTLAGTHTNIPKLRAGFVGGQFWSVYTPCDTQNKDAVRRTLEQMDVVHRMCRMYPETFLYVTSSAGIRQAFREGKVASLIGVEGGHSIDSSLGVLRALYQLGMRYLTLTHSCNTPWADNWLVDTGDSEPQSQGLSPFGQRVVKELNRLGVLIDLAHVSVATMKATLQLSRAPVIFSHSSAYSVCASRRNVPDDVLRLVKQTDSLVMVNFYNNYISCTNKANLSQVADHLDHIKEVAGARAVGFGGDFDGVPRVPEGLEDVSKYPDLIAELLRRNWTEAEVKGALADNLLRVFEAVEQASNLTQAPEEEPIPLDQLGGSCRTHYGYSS

LdtMt2 [10] = target: T3, LdtMt2; assay type: binding, M. tuberculosis
M. tuberculosis [11] = assay type: in vivo, BALB/c mice; settings: for gross pathology of lungs (tuberculous lesions): mouse, in vivo
M. tuberculosis [12] = settings: oral gavage; recent report; cited from earlier work
LdtMab1 [13] = target: T2, LdtMab1; test: Isothermal titration calorimetry, binding to LdtMab1; settings: ITC, 24° C., tris pH 8.0
LdtMt1 [14] = target: T4, LdtMt1; assay type: binding, M. tuberculosis
M. tuberculosis [15] = settings: mouse, in vivo; cited from earlier work
[16] = 10 μM LdtMt2, MES pH 6.5, 10° C.
[17] = 10 μM LdtMt2, MES pH 6.5, 10° C., read-out: kinact (converted)
[18] = competition: equimolar mixture of doripenem, biapenem, faropenem and tebipenem, within one minute
[19] = equimolar mixture of amoxicillin, cephalothin, aztreonam and faropenem

T4 sequence (O53638 32-251 limits assumed): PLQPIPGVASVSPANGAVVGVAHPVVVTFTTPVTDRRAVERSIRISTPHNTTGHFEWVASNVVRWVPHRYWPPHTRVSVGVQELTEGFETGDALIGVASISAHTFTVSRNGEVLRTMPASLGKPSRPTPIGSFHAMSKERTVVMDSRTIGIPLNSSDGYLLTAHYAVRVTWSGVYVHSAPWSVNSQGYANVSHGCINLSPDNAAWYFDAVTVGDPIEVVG
T2 sequence (B1MDC1 entry or part of it): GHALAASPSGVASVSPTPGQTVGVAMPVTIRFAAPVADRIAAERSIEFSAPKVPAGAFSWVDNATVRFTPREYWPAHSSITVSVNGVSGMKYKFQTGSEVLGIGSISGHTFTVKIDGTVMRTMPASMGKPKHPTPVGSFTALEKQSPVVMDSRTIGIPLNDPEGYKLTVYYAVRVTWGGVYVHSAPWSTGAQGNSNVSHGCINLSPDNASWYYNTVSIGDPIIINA
LdtMab2 (Mycobacteroides abscessus, UniProt B1MMQ4), sequence (B1MMQ4 62-406 limits assumed): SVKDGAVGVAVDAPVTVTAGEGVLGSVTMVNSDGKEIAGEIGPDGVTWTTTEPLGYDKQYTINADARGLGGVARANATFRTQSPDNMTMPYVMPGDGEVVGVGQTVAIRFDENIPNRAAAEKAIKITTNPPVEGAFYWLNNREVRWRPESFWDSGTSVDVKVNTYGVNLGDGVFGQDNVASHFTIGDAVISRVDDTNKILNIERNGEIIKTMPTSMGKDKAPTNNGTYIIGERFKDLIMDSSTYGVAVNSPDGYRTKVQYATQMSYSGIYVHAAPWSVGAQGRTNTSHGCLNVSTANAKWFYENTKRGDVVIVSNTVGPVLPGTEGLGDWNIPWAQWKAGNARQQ
T3 sequence (I6Y9J2 56-408 limits assumed): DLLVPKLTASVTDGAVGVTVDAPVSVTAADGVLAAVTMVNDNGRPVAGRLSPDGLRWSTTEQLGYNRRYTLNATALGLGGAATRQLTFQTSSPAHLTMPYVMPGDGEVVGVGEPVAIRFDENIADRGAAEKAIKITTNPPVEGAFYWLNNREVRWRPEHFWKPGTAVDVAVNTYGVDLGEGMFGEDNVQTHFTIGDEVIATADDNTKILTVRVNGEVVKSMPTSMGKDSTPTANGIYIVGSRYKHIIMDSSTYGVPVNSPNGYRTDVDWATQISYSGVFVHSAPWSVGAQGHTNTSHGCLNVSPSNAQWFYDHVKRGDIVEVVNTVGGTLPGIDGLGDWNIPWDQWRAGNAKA
T1 sequence (I6Y9J2 56-408 limits assumed): as above
LdtMab1, wild-type (MAB_3165c, orthologue of LdtMt1), sequence (B1MDC1 21-248): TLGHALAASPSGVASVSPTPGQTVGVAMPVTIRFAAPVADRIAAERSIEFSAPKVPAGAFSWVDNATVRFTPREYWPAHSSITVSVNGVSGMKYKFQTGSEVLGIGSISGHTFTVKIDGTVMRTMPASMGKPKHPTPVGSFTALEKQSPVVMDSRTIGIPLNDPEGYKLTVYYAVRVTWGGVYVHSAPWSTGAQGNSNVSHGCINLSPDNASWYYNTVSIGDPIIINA

In the case of `CC1(C)S[C@@H]2[C@H](NC(=O)[C@H](N)c3ccc(O)cc3)C(=O)N2[C@H]1C(=O)O` [Amoxicillin], the Kd [1] is reported as 1290 µM.
`CC(=O)OCC1=C(C(=O)O)N2C(=O)[C@@H](NC(=O)Cc3cccs3)[C@H]2SC1` [Cephalothin] gave a Kd [1] of 30.3 µM and a Kd [2] of 200 µM.
With `COC(=O)CSC1=C(C(=O)[O-])N2C(=O)[C@H]([C@@H](C)O)[C@H]2[C@H]1C.[Na+]` [T205, sodium (4R,5S,6S)-6-((R)-1-hydroxyethyl)-3-((2-methoxy-2-oxoethyl)thio)-4-methyl-7-oxo-1-azabicyclo[3.2.0]hept-2-ene-2 carboxylate] the “reaction and covalent adduct formation” value (LdtMab2 [3]) was “did not react”, the Kd [2] was 155 µM and the “reaction and covalent adduct formation” value (LdtCl) was “reacted and formed covalent adducts”. For the same compound, the “reaction and covalent adduct formation” value (LdtPa) was “reacted and formed covalent adducts”, the “reaction and covalent adduct formation” value (LdtKp) was “reacted and formed covalent adducts” and the “reaction and covalent adduct formation” value (LdtMab1 [4]) was “reacted and formed covalent adducts”.
With `CCCOC(=O)CSC1=C(C(=O)O)N2C(=O)[C@H]([C@@H](C)O)[C@H]2[C@H]1C` [T206] the Kd (LdtMab2 [5]) was “low to sub μM range”, the Kd (LdtMt2 [6]; ITC) was “low to sub μM range” and the “reaction and covalent adduct formation” value (LdtMab2 [3]) was “did not react”. The Kd [2] was 2.8 µM, the “reaction and covalent adduct formation” value (LdtCl) was “reacted and formed covalent adducts” and the “reaction and covalent adduct formation” value (LdtPa) was “did not react”. The “reaction and covalent adduct formation” value (LdtKp) was “reacted and formed covalent adducts” and the “reaction and covalent adduct formation” value (LdtMab1 [4]) was “reacted and formed covalent adducts”.
For `C[C@@H](O)[C@H]1C(=O)N2C(C(=O)O)=C(SCC(=O)OC3CCCCC3)[C@H](C)[C@H]12` [T208], the Kd (LdtMab2 [5]) was “low to sub μM range”, the Kd (LdtMt2 [6]; ITC) was “low to sub μM range” and the “reaction and covalent adduct formation” value (LdtMab2 [3]) was “did not react”. For the same compound, the Kd [2] was 5.65 µM, the “reaction and covalent adduct formation” value (LdtCl) was “reacted and formed covalent adducts” and the “reaction and covalent adduct formation” value (LdtPa) was “reacted and formed covalent adducts”. The Kapp (LdtMt2 [7]; [16]) was 4.8 ± 2.9 µM, the kinact (LdtMt2 [7]; [17]) was 0.045 s⁻¹ and the “reaction and covalent adduct formation” value (LdtKp) was “reacted and formed covalent adducts”. The “reaction and covalent adduct formation” value (LdtMab1 [4]) was “reacted and formed covalent adducts”.
For `CSC1=C(C(=O)O)N2C(=O)[C@H]([C@@H](C)O)[C@H]2[C@H]1C` [T210], the Kd (LdtMab2 [5]) was “low to sub μM range”, the “reaction and covalent adduct formation” value (LdtMab2 [3]) was “did not react” and the “reaction and covalent adduct formation” value (LdtCl) was “reacted and formed covalent adducts”. For the same compound, the “reaction and covalent adduct formation” value (LdtPa) was “reacted and formed covalent adducts”, the Kapp (LdtMt2 [7]; [16]) was 20.8 ± 3.3 µM and the “reaction and covalent adduct formation” value (LdtKp) was “reacted and formed covalent adducts”. For the same compound, the “reaction and covalent adduct formation” value (LdtMab1 [4]) was “reacted and formed covalent adducts”.
With `C[C@@H](O)[C@H]1C(=O)N2C(C(=O)O)=C(SCC(F)(F)F)[C@H](C)[C@H]12` [T221] the “minimum inhibitory concentration (MIC90) / growth inhibition” value [8] was “inhibit growth of all tested pathogens except P. aeruginosa”.
For `C[C@@H](O)[C@H]1C(=O)N2C(C(=O)O)=C(SCc3ccccc3)[C@H](C)[C@H]12` [T222], the “minimum inhibitory concentration (MIC90) / growth inhibition” value [8] was “inhibit growth of all tested pathogens except P. aeruginosa”.
With `C[C@@H](O)[C@H]1C(=O)N2C(C(=O)O)=C(SCCc3ccccc3)[C@H](C)[C@H]12` [T223] the “minimum inhibitory concentration (MIC90) / growth inhibition” value [8] was “inhibit growth of all tested pathogens except P. aeruginosa”.
In the case of `C[C@@H](O)[C@H]1C(=O)N2C(C(=O)O)=C(Sc3c[nH]c4ccccc34)[C@H](C)[C@H]12` [T224], the “minimum inhibitory concentration (MIC90) / growth inhibition” value [8] is reported as “inhibit growth of all tested pathogens except P. aeruginosa”.
In the case of `CC1(C)S[C@@H]2[C@H](NC(=O)[C@H](N)c3ccc(O)cc3)C(=O)N2[C@H]1C(=O)O` [amoxicillin], the heat of association (LdtMt1 [9]; ITC) is reported as “could not be detected” and the heat of association (LdtMt2 [6]; ITC) is reported as “could not be detected”.
With `C[C@H]1[C@H](NC(=O)/C(=N\OC(C)(C)C(=O)O)c2csc(N)n2)C(=O)N1S(=O)(=O)O` [aztreonam] the heat of association (LdtMt1 [9]; ITC) was “could not be detected” and the heat of association (LdtMt2 [6]; ITC) was “could not be detected”.
For `C[C@@H](O)[C@H]1C(=O)N2C(C(=O)[O-])=C(SC3Cn4cnc[n+]4C3)[C@H](C)[C@H]12` (stereo partly shown) [biapenem], the “metabolism by human DHP-1” value (human DHP-1) is listed as “not readily metabolized”, the “mass of stable adduct with wild-type LdtMt2” value (“mass of stable adduct” for short) (LdtMt2 [10]; UPLC-MS) is listed as “+138 Da” and the “gross pathology of lungs (tuberculous lesions)” value (M. tuberculosis [11]) is listed as “no tuberculous lesions”. The “M. tuberculosis burden in the lungs” value (M. tuberculosis [11]; three weeks of treatment) was “no less effective than rifampicin”, the “bactericidal activity in vivo” value (M. tuberculosis [11]; three weeks of treatment) was “lacked bactericidal activity” and the Kapp (LdtMt2 [7]; [16]) was 15.3 ± 2.5 µM. For the same compound, the kinact (LdtMt2 [7]; [17]) was 0.06 s⁻¹ and the kinact/KI (LdtMt2 [7]) was 3830 M⁻¹ s⁻¹.
With `CC(=O)OCC1=C(C(=O)O)N2C(=O)[C@@H](NC(=O)Cc3cccs3)[C@H]2SC1` [cephalothin] the heat of association (LdtMt1 [9]) was “could not be detected” and the heat of association (LdtMt2 [6]) was “could not be detected”.
For `C[C@@H](O)[C@H]1C(=O)N2C(C(=O)O)=C(S[C@@H]3CN[C@H](CNS(N)(=O)=O)C3)[C@H](C)[C@H]12` [doripenem], the “mass of stable adduct” value (LdtMt2 [10]) was 123 Da, the Kapp (LdtMt2 [7]; pH 6.5) was 32.6 ± 11.3 µM and the kinact (LdtMt2 [7]; pH 6.5) was 0.122 s⁻¹. It also gave a kinact/KI (LdtMt2 [7]) of 3670 M⁻¹ s⁻¹.
In the case of `Cc1oc(=O)oc1COC(=O)C1=C([C@H]2CCCO2)S[C@@H]2[C@@H]([C@@H](C)O)C(=O)N12` [faropenem medoxomil], the “M. tuberculosis burden in the lungs” value (M. tuberculosis [12]) is listed as “ineffective”.
With `C[C@@H](O)[C@H]1C(=O)N2C(C(=O)O)=C([C@H]3CCCO3)S[C@H]12` [faropenem] the Kd (LdtMt1 [9]; ITC, 24° C., tris pH 8.0, single binding modality) was 3.98 µM, the Kd (LdtMab2 [5]; read-out: Kd) was 6.25 µM and the “adducts detected in competition” value (LdtMt2 [10]) was “faropenem adducts gave the only masses we could detect”. For the same compound, the “proteins reacted exclusively with the drug” value (from here on “proteins reacted exclusively”) (LdtMt2 [10]) was 100%, the “mass of stable adduct” value (LdtMt2 [10]; UPLC-MS) was “+86 Da” and the “proteins reacted exclusively” value (LdtMab2 [3]; [18]) was 100%. For the same compound, the “adducts detected in competition” value (LdtMab2 [3]; [19]) was “faropenem adducts gave the only masses we could detect”, the Kd (LdtMab1 [13]) was 0.16 µM and the “proteins reacted exclusively” value (LdtCl; [18]) was 100%. The “adducts detected in competition” value (LdtCl; [19]) was “faropenem adducts gave the only masses we could detect”, the “gross pathology of lungs (tuberculous lesions)” value (M. tuberculosis [11]) was “developed tuberculous lesions in the lungs but their pathology and the bacterial burden were lower compared to untreated mice” and the “M. tuberculosis burden in the lungs” value (M. tuberculosis [11]; three weeks of treatment) was “lower compared to untreated mice”. For the same compound, the “survival / overall health of infected mice” value (M. tuberculosis [11]; used alone) was “prolonged the life of mice”, the Kapp (LdtMt2 [7]; [16]) was 49.2 ± 11.9 µM and the “adducts detected in competition” value (LdtKp) was “faropenem adducts gave the only masses we could detect”. The “proteins reacted exclusively” value (LdtKp) was 100%, the “adducts detected in competition” value (LdtMab1 [4]) was “faropenem adducts gave the only masses we could detect” and the “proteins reacted exclusively” value (LdtMab1 [4]) was 100%. For the same compound, the “adducts detected in competition” value (LdtMt1 [14]) was “faropenem adducts gave the only masses we could detect”, the “proteins reacted exclusively” value (LdtMt1 [14]) was 100% and the “mass of adduct with LdtMt1” value (LdtMt1 [14]; covalently attached to C226) was 86 Da.
For `C[C@@H](O)[C@H]1C(=O)N2C(C(=O)O)=C(S[C@@H]3CN[C@H](C(=O)N(C)C)C3)[C@H](C)[C@H]12` [meropenem], the “activity in macrophages and mice infected with M. tuberculosis” value (M. tuberculosis [15]) is listed as “limited activity”.
